# Reference: US20260001884A1, “Heterocycle compounds for the treatment of cancer” (Hoffmann-La Roche Inc., priority 2022, published 2026)
# Assays:
# recombinant CD73 protein = recombinant CD73 protein (Homo sapiens (Human), UniProt P21589); assay: CD73 Biochemical Assay; conditions: 0.2 nM recombinant CD73, 10 μM AMP working solution, Malachite Green readout; read-out: Enzymatic IC50 against CD73
# Description: Compound serial dilution (1:3) was prepared with Echo 555 liquid handler (Labcyte) into the corresponding wells of a 384-well plate. 25 μL of enzyme working solution [0.2 nM recombinant CD73 protein (purchased from R&D Systems, Inc), 25 mM Tris-HCl pH 7.5, 5 mM MgCl2, 0.01% BSA, 0.01% Brij-35 non-ionic detergent] was added to the assay plate and incubated with compounds for 15 minutes at room temperature. After adding 25 μL of AMP working solution (10 μM AMP, 25 mM Tris-HCl pH 7.5, 5 mM MgCl2, 0.01% BSA, 0.01% Brij-35) into the assay plate, the reaction was incubated for 10 min at room temperature. 10 uL of Malachite Green A solution was then added to each well for 10 minutes incubation. 10 uL of Malachite B solution was added to each well and then incubated for another 30 minutes. Finally the absorbance value was read on the Envision plate reader (PerkinElmer) at […]. Calculation percentage inhibition by using equation {% inhibition=100×[I−(X−MIN)/(MAX−MIN)]} where X equals to the well signal, Max equals signal of DMSO control and MIN equals signal of no cell control.
# CD73 (MDA-MB-231 cells) = CD73 (MDA-MB-231 cells) (Homo sapiens (Human), UniProt P21589); assay: CD73 Cellular Assay; assay type: cell-based; conditions: 10 μM AMP working solution, 45 min at 37° C., Malachite Green readout, read-out: Cellular IC50 against CD73
# Sequence of CD73 (MDA-MB-231 cells) (P21589 27-574): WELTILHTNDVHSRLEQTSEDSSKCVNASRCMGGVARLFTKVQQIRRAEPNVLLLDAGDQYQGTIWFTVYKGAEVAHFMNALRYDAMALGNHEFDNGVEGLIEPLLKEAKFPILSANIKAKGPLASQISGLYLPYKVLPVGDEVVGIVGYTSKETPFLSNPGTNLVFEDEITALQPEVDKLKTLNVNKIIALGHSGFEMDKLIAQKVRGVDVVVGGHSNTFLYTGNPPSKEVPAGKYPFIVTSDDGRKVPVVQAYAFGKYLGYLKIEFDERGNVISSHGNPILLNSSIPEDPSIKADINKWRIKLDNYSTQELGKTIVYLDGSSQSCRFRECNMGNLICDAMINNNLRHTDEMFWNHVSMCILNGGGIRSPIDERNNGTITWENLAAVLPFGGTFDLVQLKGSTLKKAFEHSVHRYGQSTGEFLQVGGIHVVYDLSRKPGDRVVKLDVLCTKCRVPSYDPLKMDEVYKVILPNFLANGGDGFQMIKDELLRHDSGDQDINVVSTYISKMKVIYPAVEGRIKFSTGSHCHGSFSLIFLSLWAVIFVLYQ
# Description: Compound serial dilution (1:3) was prepared with Echo 555 liquid handler (Labcyte) into the corresponding wells of a 384-well plate. 40 μL of MDA-MB-231 cells (ATCC, HTB-26, breast cancer, final concentration at 20,000 cells/mL) suspended in assay buffer (25 mM Tris-HCl pH 7.5, 5 mM MgCl2, 0.01% BSA, 0.01% Brij-35) were added into the corresponding wells of the plate. After incubating with compounds for 30 minutes, 40 μL of AMP working solution (10 μM AMP, 25 mM Tris-HCl pH 7.5, 5 mM MgCl2, 0.01% BSA, 0.01% Brij-35) was added into each well in the assay plate. The assay plate was then incubated in a 5% CO2 incubator (Thermo Fisher Scientific) at 37° C. for 45 min. After the reaction was completed, 50 μL of the supernatants was collected and transferred into a new 384 well plate. 10 μL of Malachite A was added to each well in the assay plate and incubated for 10 minutes. 10u L of Malachite B was then added to each corresponding well of the plate and incubated for 30 minutes. Finally the absorbance value was read on the Envision plate reader at […]. Calculation percentage inhibition by using equation {% inhibition=100×[I−(X−MIN)/(MAX−MIN)]} where X equals to the well signal, Max equals signal of DMSO control and MIN equals signal of no cell control.
# Sequence of recombinant CD73 protein (P21589 27-574, species assumed): as the sequence (P21589 27-574) above
IC50 (recombinant CD73 protein) [nM],IC50 (CD73 (MDA-MB-231 cells)) [nM],SMILES
267,27,"CC(C)n1c(=O)n(C)c2nnc(-c3c[nH]c(=O)[nH]c3=O)cc21 [Example 3, 5-(5-isopropyl-7-methyl-6-oxo-imidazo[4.5-]pyridazin-3-yl)-1H-pyrimidine-2,4-dione]"
254,156,"Cn1c(=O)n(C)c2nnc(-c3c[nH]c(=O)[nH]c3=O)cc21 [Example 2, 5-(5,7-dimethyl-6-oxo-imidazo[4,5-c]pyridazin-3-yl)-1H-pyrimidine-2,4-dione]"
,107,"Cn1c(=O)n(Cc2ccccc2)c2cc(-c3c[nH]c(=O)[nH]c3=O)nnc21 [Example 4, 5-(5-benzyl-7-methyl-6-oxo-imidazo[4,5-c]pyridazin-3-yl)-1H-pyrimidine-2,4-dione]"
622,74,"Cn1c(=O)[nH]c2nnc(-c3c[nH]c(=O)[nH]c3=O)cc21 [Example 1, 5-(5-methyl-6-oxo-7H-imidazo[4,5-c]pyridazin-3-yl)-1H-pyrimidine-2,4-dione]"
